System: Bifidobacterium lactis PTA-4802
Assay: Antibiotic sensitivity profile (NCCLS M11-A5 agar dilution MIC)
Format: cell-based
Details: MRS + cysteine agar; sensitivity of strain PTA-4802 to the antibiotic

Compound | Antibiotic Sensitivity (S/I/R)
Neomycin | R (MIC >64 ug/ml = Resistant (R))
Polymyxin B | R (MIC >64 ug/ml = Resistant (R))
CC1(C)S[C@@H]2[C@H](NC(=O)Cc3ccccc3)C(=O)N2[C@H]1C(=O)O [Penicillin G] | S (MIC <4 ug/ml = Sensitive (S))
Gentamicin | R (MIC >64 ug/ml = Resistant (R))

— US7179460B2, “Bacterial composition and its use” (priority 2002, dated 2007)
